Measured values published in patent publication US20240261416A1, “SYNTHESIS OF NOVEL CEREBLON E3 LIGASE LIGANDS, COMPOUNDS FORMED THEREBY, AND PHARMACEUTICAL COMPOSITIONS CONTAINING THEM” (Wisconsin Alumni Research Foundation, priority 2023, published 2024).
Where two headings read alike, the source gives them in different places.

Assays:
[1] = in human blood; cited from earlier work
[2] = in-vivo in humans; cited from earlier work
MV4; 11 cells [3] = test: flow cytofluorimetric cell cycle analysis; assay type: cell-based, human; conditions: 48 h
Method: (§1) FIGS. 9A-9D. Functional studies of the PROTACs including anti-proliferation, apoptosis, G1 phase arrest, and reduced population in S phase. (FIG. 9A) AlamarBlue™ Cell Viability. […] (FIG. 9B) MV4; 11 cells were treated by indicated dosage of 13 for 48 h followed by flow cytofluorimetric cell cycle analysis. (FIGS. 9C and 9D) MV4; 11 cells were treated by indicated dosage of 13 for 48 h followed by flow cytofluorimetric apoptosis analyses.
(§2) Flow Cytometry Cell apoptosis and cell cycle were detected by Attune Flow cytometer (Thermo Fisher). Cells were seeded in a 6-well plate and treated with the indicated concentrations of compounds for 48 h. For samples for cell apoptosis detection, cells were harvested and incubated in Annexin V-FITC and PI reagents each for 15 minutes (Annexin V-FITC apoptosis detection kit, Invitrogen). For the samples for cell cycle detection, cells were fixed in 70% cold ethanol overnight and stained with PI (500 μg/ml) for 15 minutes. Flow data were analyzed using Flowjo software.

MV4; 11 cells [4] = test: flow cytofluorimetric apoptosis analysis; assay type: cell-based, human; conditions: 48 h
Method: as §1, §2

caspase 3 cleavage = test: Western blot of caspase 3 and cleaved caspase 3 in MV4; 11 cells; conditions: at 10 nm to 10 µM concentrations

Compound | racemization half-life [1] | racemization half-life [2] | cell cycle effect, in words (MV4; 11 cells [3]) | cell apoptosis, in words (MV4; 11 cells [4]) | caspase 3 cleavage, in words (caspase 3 cleavage)
O=C1CCC(N2C(=O)c3ccccc3C2=O)C(=O)N1 (centres unmarked) [thalidomide] | ~2.0 h | ~5.0 h | – | – | –
Cc1sc2c(c1C)C(c1ccc(Cl)cc1)=N[C@@H](CC(=O)NC1CCN(C(=O)COc3cccc(N4CCC(=O)NC4=O)c3C)CC1)c1nnc(C)n1-2 [Compound 13, (S)-2-(4-(4-chlorophenyl)-2,3,9-trimethyl-6H-thieno[3,2-f][1,2,4]triazolo[4,3-a][1,4]diazepin-6-yl)-N-(1-(2-(3-(2,4-dioxotetrahydropyrimidin-1(2H)-yl)-2-methylphenoxy)acetyl)piperidin-4-yl)acetamide] | – | – | induce G1 phase arrest, decrease the cell population in S phase | induce cell apoptosis in a dose-dependent manner | successful in inducing caspase 3 cleavage
